{
  "source": "patent US20060025484A1",
  "about": "(priority 2003, published 2006)",
  "key": {"glutathione reductase": {"target": "T1, glutathione reductase (Homo sapiens, UniProt P00390)", "T1 construct": "from tissue; host or cells: lungs", "T1 sequence (P00390 44-522)": "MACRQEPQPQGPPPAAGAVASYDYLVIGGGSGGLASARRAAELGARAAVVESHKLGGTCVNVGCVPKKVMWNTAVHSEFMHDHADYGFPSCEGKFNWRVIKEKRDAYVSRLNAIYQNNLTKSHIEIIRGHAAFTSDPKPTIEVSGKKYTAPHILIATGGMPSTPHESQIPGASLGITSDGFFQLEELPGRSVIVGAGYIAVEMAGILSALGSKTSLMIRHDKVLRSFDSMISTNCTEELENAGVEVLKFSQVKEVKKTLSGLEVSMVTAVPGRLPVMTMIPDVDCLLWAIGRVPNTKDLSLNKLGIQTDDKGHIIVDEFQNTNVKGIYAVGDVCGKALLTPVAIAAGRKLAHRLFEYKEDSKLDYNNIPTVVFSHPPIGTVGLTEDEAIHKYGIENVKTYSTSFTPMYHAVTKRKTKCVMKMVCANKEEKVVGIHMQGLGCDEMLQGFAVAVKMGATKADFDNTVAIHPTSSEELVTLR", "test": "Inhibition of glutathione reductase in the lungs", "format": "biochemical", "excerpt": "(§1) It is assumed that this is attributable to the fact that when HECNU is used, there cannot be any carbamoyl reactions in the body because no carbamoylating metabolite is formed in its degradation in the body."}, "[1]": {"test": "Gastrointestinal toxicity in patients", "format": "in vivo, human", "conditions": "nausea and vomiting in patients"}, "Water solubility": {"test": "Water solubility", "format": "physicochemical", "excerpt": "(§2) It is known that bis-(2-chloroethyl)-1-nitrosourea (hereinafter also referred to as BCNU) can be used in the treatment of various types of cancer. BCNU is lipophilic but it has a low solubility in water, so that additional solvents such as ethanol must be used in application. […] There has therefore been a search for alternatives to BCNU."}, "malignant brain tumors": {"tested_on": "malignant brain tumors", "conditions": "phase II; cited from earlier work"}, "[2]": {"test": "Organ toxicity (bone marrow, lungs, kidney)", "format": "in vivo", "conditions": "in comparison with BCNU", "excerpt": "as §2, §1"}, "colorectal carcinoma": {"tested_on": "colorectal carcinoma", "conditions": "phase II; cited from earlier work"}, "[3]": {"tested_on": "tumors of the head and neck", "test": "In-vitro experiments on tumors of the head and neck", "format": "cell-based"}, "pancreas lines": {"tested_on": "pancreas lines", "test": "In-vitro experiments with various pancreas lines", "format": "cell-based", "method": "Inhibiting effects in the low μg/mL range were also found in in-vitro experiments conducted with various pancreas lines, an inhibiting effect normally being achieved with an HECNU concentration of less than 10 μg/mL."}, "[4]": {"tested_on": "human tumor xenograft models", "test": "Subcutaneously implanted human tumor xenograft models in the naked mouse", "format": "in vivo", "conditions": "s.c. human xenografts: soft tissue sarcomas, testicular tumors, thymomas, melanomas, mammary carcinomas, lung tumors, Wilms' tumors, renal carcinomas", "excerpt": "Furthermore, the activity of HECNU has also been investigated in a number of subcutaneously implanted human tumor xenograft models in the naked mouse. […] These included soft tissue sarcomas, testicular tumors, thymomas, melanomas, mammary carcinomas, tumors of the lung, Wilms' tumors and renal carcinomas."}, "[5]": {"tested_on": "malignant supratentorial gliomas", "conditions": "cited from earlier work"}, "Carcinogenicity": {"test": "Carcinogenicity", "format": "in vivo", "conditions": "in comparison with BCNU", "excerpt": "as §1"}, "pancreatic carcinoma": {"tested_on": "pancreatic carcinoma", "test": "Clinical phase II study in patients with pancreatic cancer", "format": "in vivo, human", "parameters": "key to Effect: partial remission (PR); minor response (MR)", "excerpt": "• Pancreatic carcinoma • Clinical study: • Phase II: ¼ partial remission (PR) (44 weeks)\n+1 minor response (MR) (23 weeks)\nA minor response was obtained in another patient."}, "gastric carcinomas": {"tested_on": "gastric carcinomas", "conditions": "phase II; cited from earlier work"}, "[6]": {"conditions": "single patient with pancreas tumor, dose 100 mg/m^2"}},
  "note": "Several values for one entry are separate records, joined by “and”; a condition that tells them apart may be missing. Identical values can stand only once.",
  "data": [
    {"smiles": "O=NN(CCCl)C(=O)NCCO", "note": "[HECNU, 1-(2-chloroethyl)-1-nitroso-3-(2-hydroxyethyl)urea]", "values": [
      {"measurement": "Inhibition of glutathione reductase", "setting": "glutathione reductase", "result": "does not inhibit glutathione reductase"},
      {"measurement": "Gastrointestinal toxicity", "setting": "[1]", "result": "only a low gastrointestinal toxicity"},
      {"measurement": "Water solubility", "setting": "Water solubility", "result": "good water solubility"},
      {"measurement": "Antineoplastic activity", "setting": "malignant brain tumors", "result": "significant antineoplastic activity"},
      {"measurement": "Bone marrow, pulmonary and renal toxicity", "setting": "[2]", "result": "greatly reduced bone marrow toxicity, pulmonary toxicity and renal toxicity"},
      {"measurement": "Activity and response rate", "setting": "colorectal carcinoma", "result": "only marginal activities and response rates"},
      {"measurement": "Inhibiting effect in vitro", "setting": "[3]", "result": "an inhibiting effect was also achieved"},
      {"measurement": "HECNU concentration achieving an inhibiting effect", "setting": "pancreas lines", "result": "less than 10 μg/mL"},
      {"measurement": "Inhibiting effect on tumor growth", "setting": "[4]", "result": "good to very good inhibiting effects on tumor growth"},
      {"measurement": "Toxicity profile", "setting": "[5]; compared with other nitrosoureas", "result": "more favorable toxicity profile in comparison with other nitrosoureas"},
      {"measurement": "Activity", "setting": "[5]; phase II, malignant supratentorial gliomas", "result": "demonstrated its activity"},
      {"measurement": "Carcinogenicity", "setting": "Carcinogenicity", "result": "much weaker carcinogen than BCNU"},
      {"measurement": "Partial remission, share of treated patients", "setting": "pancreatic carcinoma; four treated patients with pancreatic cancer", "result": "¼"},
      {"measurement": "Effect", "setting": "pancreatic carcinoma; [6]", "result": "PR and MR"},
      {"measurement": "Time to P (weeks)", "setting": "pancreatic carcinoma; [6]", "result": "44 weeks and 23 weeks"},
      {"measurement": "Partial remission, patients treated", "setting": "gastric carcinomas", "result": 31, "unit": "%"}
    ]}
  ]
}
